Two compounds from paper PMC3005942, “Cloning, Expression, and Purification of a Nitric Oxide Synthase-Like Protein from Bacillus cereus” (Biochemistry Research International, 2009) can be followed below.

Molecules are shown by their SMILES.

Assay [1] concerns the target T1, bcNOS (Bacillus cereus, UniProt Q814I7).
T1 construct: gene BC_5444; full length, 356 residues, 43 kDa, homodimer; N-terminal His6 tag (pET28a, NdeI/EcoRI), E. coli BL21(DE3) pLysS; heme protein
T1 sequence (Q814I7 1-356): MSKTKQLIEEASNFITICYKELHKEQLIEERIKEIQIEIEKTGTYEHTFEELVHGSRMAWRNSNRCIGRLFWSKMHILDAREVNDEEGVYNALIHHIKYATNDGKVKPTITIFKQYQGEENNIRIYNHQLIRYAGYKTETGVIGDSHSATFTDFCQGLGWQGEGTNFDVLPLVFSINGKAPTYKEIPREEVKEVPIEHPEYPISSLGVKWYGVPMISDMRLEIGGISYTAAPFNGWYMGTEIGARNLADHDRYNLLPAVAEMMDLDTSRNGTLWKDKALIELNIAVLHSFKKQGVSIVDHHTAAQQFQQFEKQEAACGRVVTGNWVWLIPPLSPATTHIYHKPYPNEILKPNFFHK
Put plainly: H2O2-dependent NOHA oxidation to nitrite, plate reader. The following applies: H2O2, 25 °C, activator. In kind it is biochemical.

The target in assay [2] is T1, bcNOS. Briefly: difference spectroscopy, double-reciprocal analysis. In kind it is binding. The following applies: distal sixth ligand of ferric heme.

Turning to `Nc1nc2c(c(=O)[nH]1)N[C@@H](CNc1ccc(C(=O)N[C@@H](CCC(=O)O)C(=O)O)cc1)CN2` [THF], in assay [1], the “H2O2-dependent NOHA oxidation to nitrite, plate reader” value was “in the presence of NOHA and THF the activity doubled”. `c1c[nH]cn1` [imidazole]: in assay [2], binding was put at a Kd of 181 ± 13 µM.
